The values that follow are results of earlier work, collected in patent US9201077B2 (Colorado State University Research Foundation, priority 2009, dated 2015).

A value given as a limit tells only on which side of the number the result lay.

For data set [1], the system named is Anti-Progesterone (R4859) Antibody raised against 11α-hemisuccinate progesterone. The conditions noted are these: tested by UC Davis Endocrinology Laboratory.
The subject of data set [2] is antibody used in progesterone assays. The conditions noted are these: conventional progesterone assay.

For `C[C@@H](O)[C@H]1CC[C@H]2[C@@H]3CCC4=CC(=O)CC[C@]4(C)[C@H]3CC[C@]12C` [20β-OH-Progesterone], the “% Cross Reaction” value in data set [1] is 0.13%.

Regarding `C=CC[C@]1(O)CC[C@H]2[C@@H]3CCC4=CC(=O)CCC4=C3C=C[C@@]21C` [altrenogest], the “cross-reaction with the antibody used in progesterone assays” value in data set [2] is “does not cross-react”.

For `CC(=O)[C@H]1CC[C@H]2[C@@H]3CC=C4C[C@@H](O)CC[C@]4(C)[C@H]3CC[C@]12C` [Pregnenolone], the “% Cross Reaction” value in data set [1] was 0.12%.

For the molecule `C[C@]12CC[C@H]3[C@@H](CCC4=CC(=O)CC[C@@]43C)[C@@H]1CC[C@@H]2O` [Testosterone], in data set [1], the “% Cross Reaction” value was less than 0.01%.

With `C[C@]12CC[C@@H]3c4ccc(O)cc4CC[C@H]3[C@@H]1CC[C@@H]2O` [Estradiol 17β], the “% Cross Reaction” value in data set [1] is recorded as less than 0.01%.

Take `C[C@]12CCC(=O)C=C1CC[C@@H]1[C@@H]2[C@@H](O)C[C@@]2(C)[C@H]1CC[C@]2(O)C(=O)CO` [Cortisol]: the “% Cross Reaction” value in data set [1] is on record as less than 0.04%.

In the case of `CC(=O)[C@H]1CC[C@H]2[C@@H]3CCC4=CC(=O)CC[C@]4(C)[C@H]3CC[C@]12C` [Progesterone], the “% Cross Reaction” value in data set [1] was 100.00%.

For the molecule `C[C@H](O)[C@H]1CC[C@H]2[C@@H]3CC[C@@H]4C[C@H](O)CC[C@]4(C)[C@H]3CC[C@]12C` [Pregnanediol], in data set [1], the “% Cross Reaction” value was less than 0.01%.

Consider `CC(=O)[C@@]1(O)CC[C@H]2[C@@H]3CCC4=CC(=O)CC[C@]4(C)[C@H]3CC[C@@]21C` [17α-OH-Progesterone], for which the “% Cross Reaction” value in data set [1] is given as 0.38%.

Regarding `CC(=O)[C@H]1CC[C@H]2[C@@H]3CCC4=CC(=O)CC[C@]4(C)[C@H]3[C@H](O)C[C@]12C` [11α-OH-Progesterone], the “% Cross Reaction” value in data set [1] is 40.00%.

Take `CC(=O)[C@H]1CC[C@H]2[C@@H]3CC[C@H]4CC(=O)CC[C@]4(C)[C@H]3CC[C@]12C` [5α-Pregnane-3,20-dione]: in data set [1], the “% Cross Reaction” value is reported as 12.19%.

On to `C[C@H](O)[C@H]1CC[C@H]2[C@@H]3CCC4=CC(=O)CC[C@]4(C)[C@H]3CC[C@]12C` [20α-OH-Progesterone], for which, in data set [1], the “% Cross Reaction” value is listed as 0.13%.
